Measurements taken from patent US12667568B2, “Compositions and methods for the treatment and diagnosis of cancer” (The General Hospital Corporation, priority 2020, dated 2026).

Legend:
Format in all cases: cell-based
[1] = tested on: MCF-7, HCC1954, and HCC1937 cells; test: Cell survival assay, YW-1842 with DNA damaging agents, IR or H2O2
Procedure: (§1) FIGS. 6A-6E show TRDMT1 Inhibitors specifically sensitizes cells to DNA damage agents. (FIG. 6A) SCE WT cells were transfected with TA-KR and were cultured with 2.5 μM/L compound YW-1842 or not for 6 hours, m^5C (n=3, 50 cells per replicated, Mean±SD) was stained and quantified. DR-GFP (FIG. 6B) or EJ5-GFP (FIG. 6C) cells were pre-treated with 2.5 μM/L compound YW-1842 for 6 h or TRDMT1 siRNA for 48 h, or DMSO. Then the cells were transfected with NLS-I-SceI plasmid to induce DSB. The efficiency of HR (FIG. 6B) or NHEJ (FIG. 6C) was analyzed by flow-cytometry (n=3, Mean f SD). (FIG. 6D) After seeding, MCF-7, HCC1954, and HCC1937 cells were pre-treated with or without 2.5 μM/L compound YW-1842 for 6 h, then cultured with chemotherapy drugs (1 μM/L Cisplatin; 1 μM/L ATRi AZ20; […]; 1 μM/L PARPi Olaparib for 10 days. The survival rate of these cells was analyzed (n=3, Mean±SD). (FIG. 6E) TRDMT1 KO U2OS cells were transfected with GFP-TRDMT1^WT or GFP-TRDMT1^G155V with or without 2.5 μM/L compound YW-1842, the survival rate of these cells after IR or Cisplatin was shown (n=3, Mean±SD).
MCF-7, HCC1954, and HCC1937 cells were pre-treated with or without TRDMT1 inhibitor YW-1842 (2.5 μM) for 6 hrs, then the cells were exposed to IR or H2O2, and cultured for 7-14 days. The survival rate of these cells was analyzed (n=3, Mean±SD)
(§2) Approximately 500 U2OS/TRDMT1 KO U2OS/MCF-7/HCC1954/HCC1937 cells and TRDMT1 siRNA or GFP-TRDMT1 WT/G155V/K251R transfected cells were seeded in 6 cm dish with or without TRDMT1 inhibitors (2.5 μM/L). 6 hrs after seeding, cells were exposed to cisplatin (1134357, Sigma, 1 μM/L), ATMi (KU55933, C9867, Sigma, 1 μM/L), ATRi (AZ20, 57050, Selleck, 1 μM/L) or PARPi (Olaparib, AZD2461, Sigma, 1 μM/L) at indicated concentration or ionizing radiation (IR). After 7-14 days, colonies were fixed and stained with 0.3% crystal violet in methanol, and the number of colonies was counted manually.

γ-H2AX foci = γ-H2AX foci clearance after damage; details: 2.5 μM/L YW-1842, cells after IR
Procedure: FIGS. 6F-6G show TRDMT1 inhibitor YW-1842 delays the repair of DSBs at the transcribed genome. (FIG. 6F) U2OS or MCF7 cells were treated with or without compound YW-1842 at the indicated concentration. […]
Cells for immunofluorescence observation were fixed in 4% PFA (Affymetrix, 19943 1 LT) at room temperature for 15 min and further treated with 0.2% triton for 10 min. They were then blocked by 3% BSA (SIGMA, A-7030) at room temperature for 1 h. Primary antibody for RAD51(ab63801, Abcam, 1:200)), RAD52(sc-365341, Santa Cruz, CA, USA, 1:500), TRIM28 (ab10484, Abcam, 1:500), γH2AX ser139 (JBW301, 05-636, EMD Millipore, 1:200), were incubated with cells at 4° C. overnight. After washing with 0.05% PBS-Tween (PBST), the cells were incubated with secondary antibody for 1 h at room temperature.

U2OS (DR-GFP) cells = test: DR-GFP HR reporter assay; details: 2.5 μM/L, 6 h pre-treatment, versus DMSO
Procedure: as §1
Using a previously described method[Lan, L. et al. The ACF1 complex is required for DNA double-strand break repair in human cells. […] The GFP signal arising from the recombination (HR) or non-homologous end joining (NHEJ) events were measured by flow cytometry.

TRDMT1 KO U2OS cells = test: Cell survival assay in TRDMT1 KO cells after IR or Cisplatin; details: 2.5 μM/L
Procedure: as §1
Approximately 500 U2OS/TRDMT1 KO U2OS/MCF-7/HCC1954/HCC1937 cells and TRDMT1 siRNA or GFP-TRDMT1 WT/G155V/K251R transfected cells were seeded in 6 cm dish with or without TRDMT1 inhibitors (2.5 μM/L). […]

U2OS or MCF7 cells = test: Cell survival assay, YW-1842 alone; details: concentration below 5 μM/L
Procedure: FIGS. 6F-6G show TRDMT1 inhibitor YW-1842 delays the repair of DSBs at the transcribed genome. (FIG. 6F) U2OS or MCF7 cells were treated with or without compound YW-1842 at the indicated concentration. The survival rate of these cells was shown (n=3, Mean±SD). (FIG. 6G) SCE WT cells were transfected with TA-KR and were cultured with […] YW-1842 or not for 6 hours, γ-H2AX (n=3, 50 cells per replicated, Mean±SD) were stained and quantified.
as §2

COc1cc2nc(-n3cc(-c4ccc(S(C)(=O)=O)cc4)cn3)nc(-c3ccsc3)c2cc1OC [YW-1842, 6,7-dimethoxy-2-(4-(4-(methylsulfonyl)phenyl)-1H-pyrazol-1-yl)-4-(thiophen-3-yl)quinazoline]
survival rate in combination with H2O2 ([1]; 2.5 μM, combined with H2O2, versus DMSO): decreased the survival rate of all the three cell lines
sensitization to DNA damaging agents (survival rate) ([1]; 2.5 μM/L with Cisplatin, ATRi AZ20, ATMi KU55933 or PARPi Olaparib, versus single treatment): sensitizes the cells to above DNA damaging agents
cell killing by compound alone ([1]; 2.5 μM/L, alone): does not kill cells alone
synergy with PARPi Olaparib ([1]; YW-1842 2.5 μM, Olaparib at 1, HCC 1954 cell lines): strong synergy
DNA repair efficiency, clearance of γ-H2AX foci (γ-H2AX foci): delayed clearance of γ-H2AX foci
HR-mediated repair of I-SceI-generated DSBs (DR-GFP) (U2OS (DR-GFP) cells): diminished the repair of I-SceI-generated DSBs
sensitization of TRDMT1 KO cells to IR or Cisplatin (TRDMT1 KO U2OS cells): does not sensitize TRDMT1 KO
antiproliferative effect (U2OS or MCF7 cells): did not prohibit cell proliferation
